What was measured:
[1] = system: actinic keratoses lesions; assay: Phototherapy of actinic keratoses lesions with topical photosensitizer prodrug and red light emitting OLED (Device A); assay type: in vivo, person; details: 20% topical solution on individual lesions; illuminated about 14-18 hours after application with red OLED Device A
From the text: 5-Aminolevulinic acid HCl (20% topical solution, available as LEVULAN® KERASTICK® from DUSA® Pharmaceuticals) is topically applied to individual lesions on a person suffering from actinic keratoses.
Methyl aminolevulinate (16.8% topical cream, available as METVIXIA® Cream from GALERMA LABORATORIES, Fort Worth, Tex., USA) is topically applied to individual lesions on a person suffering from actinic keratoses.

[2] = system: presumed ocular histoplasmosis; set-up: species or system person; details: in vivo, iv
[3] = system: pathological myopia; assay: Verteporphin phototherapy of pathological myopia, retina illuminated with red OLED (Device A); details: about 6 mg/m^2 i.v. over about 10 minutes; retina illuminated about 15 minutes after start of infusion with red OLED Device A
[4] = system: age-related macular degeneration; assay: Verteporphin phototherapy of age-related macular degeneration, retina illuminated with red OLED (Device A); details: about 6 mg/m^2 i.v. over about 10 minutes; retina illuminated about 15 minutes after start of infusion with red OLED Device A

For `Cl.NCC(=O)CCC(=O)O` [5-Aminolevulinic acid HCl], the “number or severity of the lesions after the treatment” value [1] was “anticipated to be reduced”.

`C=Cc1c(C)c2cc3nc(cc4[nH]c(cc5nc(cc1[nH]2)C(C)=C5CCC(=O)O)c(CCC(=O)OC)c4C)[C@@]1(C)C3=CC=C(C(=O)OC)[C@H]1C(=O)OC` [Verteporphin] was tested, and the “patient's vision after treatment” value [2] was “anticipated to be stabilized”, the “patient's vision after treatment” value [3] was “anticipated to be stabilized” and the “patient's vision after treatment” value [4] was “anticipated to be stabilized”.
